Laboratory results published in the supplement of paper PMC11451515.

Key:
Experiment in all cases: AUC of viability dose-response curve (% viability x log10 dose units); higher = less sensitive
Conditions in all cases: 48 h
[1] = tested on: NOMO1
How it was run: (§1)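 In 1536-well plates, leukemia cells adapted to each medium (500 or 1000 cells/well) were exposed for 48 h at 37°C to library compounds in DMSO across 11 threefold doses, 47 μM down to 0.79 nM. Viability was read by CellTiter-Glo One luminescence and normalised per plate to DMSO and cell-free wells. A four-parameter log-logistic fit over log10 doses was integrated by trapezoidal rule. This yielded the area under the curve, with over-full-viability curves scaled and quality-control failures dropped.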

[2] = tested on: SEM cells
How it was run: as §1

[3] = tested on: P12-Ichikawa
How it was run: as §1

[4] = RPMI 5 mM glucose + 10% dialyzed FBS

| SMILES | AUC of viability dose-response curve ([1]; HPLM + 10% dialyzed FBS) | AUC of viability dose-response curve ([1]; RPMI 5 mM glucose + 10% FBS) | AUC of viability dose-response curve [1, 4] | AUC of viability dose-response curve ([2]; HPLM + 10% dialyzed FBS) | AUC of viability dose-response curve ([2]; RPMI 5 mM glucose + 10% FBS) | AUC of viability dose-response curve [2, 4] | AUC of viability dose-response curve ([3]; HPLM + 10% dialyzed FBS) | AUC of viability dose-response curve ([3]; RPMI 5 mM glucose + 10% FBS) | AUC of viability dose-response curve [3, 4] |
| --- | --- | --- | --- | --- | --- | --- | --- | --- | --- |
| Cc1ccc(F)c(NC(=O)Nc2ccc(-c3cccc4[nH]nc(N)c34)cc2)c1 | 464 | 472 | 471 | 314 | 256 | 296 | 470 | 472 | 470 |
| CNC(=O)c1cc(Oc2ccc(NC(=O)Nc3cc(C(C)(C)C)nn3-c3ccc4ncccc4c3)c(F)c2)ccn1 | 433 | 452 | 450 | 375 | 359 | 335 | 464 | 465 | 469 |
| CCC1=C(C)CN(C(=O)NCCc2ccc(S(=O)(=O)NC(=O)N[C@H]3CC[C@H](C)CC3)cc2)C1=O | 475 | 439 | 457 | 417 | 443 | 445 | 458 | 442 | 458 |
| Cc1c(OCC(F)(F)F)ccnc1C[S+]([O-])c1nc2ccccc2[nH]1 (stereo not given) | 456 | 469 | 448 | 420 | 475 | 453 | 466 | 459 | 471 |
| C[C@@]12OC(=O)[C@@]1(NC(=O)[C@@H]2CCCl)[C@@H](O)[C@H]\3CCC\C=C3 | 243 | 254 | 254 | 183 | 182 | 177 | 256 | 253 | 247 |
| COC1=CC=C(C=C1)C/2=C/OC3=CC(=CC=C3C2=O)O | 422 | 451 | 437 | 445 | 458 | 430 | 451 | 461 | 456 |
| OC1=C(C=CC=C1)C2=CC=C(C=C2)C3=CSC4=C3C(=C(/C#N)C(=O)N4)/O | 462 | 449 | 453 | 453 | 434 | 457 | 448 | 456 | 453 |
| CCc1cc(/C(C)=N/OCc2ccc(C3CCCCC3)c(C(F)(F)F)c2)ccc1CN1CC(C(=O)O)C1 | 385 | 418 | 420 | 455 | 452 | 463 | 418 | 414 | 414 |
| CCOP(=O)(OCC)C(C)NC(=O)N(CCCl)N=O (stereo not given) | 441 | 402 | 466 | 470 | 447 | 461 | 431 | 453 | 436 |
| CC1=CC2=C(O1)C(=C3OC(=O)\C=C(C)/C3=C2)C | 446 | 466 | 451 | 404 | 453 | 447 | 468 | 469 | 468 |
